Assays:
[1] = tested on: extracellular HBV DNA in HBV-infected PHH; test: Cryopreserved primary human hepatocytes (PHH) assay, HBV DNA; format: cell-based; conditions: Hepatitis B virus, Hepatocyte, 216 h; cryopreserved PHH infected with HBV, 9 days post-compound treatment, quantitative PCR
Method: Cryopreserved PHH (BioreclamationIVT, Lot YJM) was thawed at 37° C. and gently transferred into pre-warmed InVitroGRO HT medium (BioreclamationIVT, Cat. S03317). The mixture was centrifuged at 70 relative centrifugal force (RCF) for 3 minutes at RT, and the supernatant was discarded. Pre-warmed InVitroGRO CP medium (BioreclamationIVT, Cat # S03316) was added to the cell pellet to gently re-suspend cells. The cells were seeded at the density of 5.8×10^4 cells per well to collagen I coated 96-well plate (Gibco, Cat. A1142803) with the InVitroGRO CP medium. All plates were incubated at 37° C. with 5% CO2 and 85% humidity.
At 20 hours after plating, the medium was changed to PHH culture medium (Dulbecco's Modified Eagle Medium (DMEM)/F12 (1:1) (Gibco, Cat. 11320-033), 10% fetal bovine serum (Gibco Cat. 10099141), 100 U/mL penicillin, 100 μg/mL streptomycin (Gibco, Cat. 151401-122), 5 ng/mL human epidermal growth factor (Invitrogen Cat. PHG0311L), 20 ng/mL dexamethasone (Sigma, Cat. D4902) and 250 ng/mL human recombinant insulin (Gibco, Cat. 12585-014)). And the cells were incubated at 37° C. with 5% CO2 and 85% humidity for 4 hours. The medium was then changed to pre-warmed PHH culture medium containing 4% polyethylene glycol (PEG) MW8000 (Sigma, Cat. P1458-50ML) and 1% DMSO (Sigma, Cat. D2650). 5.8×10^6 genomic equivalents of HBV were added into the medium.
At 24 hours post-infection, the cells were gently washed with PBS and refreshed with PHH culture medium supplemented with 1% DMSO, and 0.25 mg/mL Matrix gel (Corning, Cat. 356237) at 200 μL per well. All plates were immediately placed in at 37° C. CO2 incubator.
24 hours later, serial dilutions of compounds made with DMSO were further diluted with the same culture medium (PHH culture medium supplemented with 1% DMSO and 0.25 mg/mL Matrix gel as described above) before they were added to the cells to reach desired final compound concentrations and 1% DMSO concentration. The medium containing the compounds were refreshed every three days.
At 9 days post-compound treatment, extracellular HBsAg level were measured with Chemiluminescence Immuno Assay (CLIA) kit (Autobio, HBsAg Quantitative CLIA). Extracellular HBV DNA was extracted by MagNA Pure 96 system (Roche) and then determined by quantitative PCR with the following primers and probe: HBV-Forward Primer (SEQ ID NO:2): […] (5′ to 3′); HBV-Reverse Primer (SEQ ID NO:3): […](5′ to 3′); HBV-Probe: 5′+tetramethylrhodamine+SEQ ID NO:4+black hole quencher 2-3′, wherein SEQ ID NO:4 is […].
HBsAg IC50 and HBV DNA IC50 values were derived from the dose-response curve using 4 parameter logistic curve fit method.

[2] = tested on: cccDNA level in HepDES19 cells; test: cccDNA Southern Blot assay; format: cell-based, HBV; conditions: 5 days' compound treatment, Hirt DNA, serial dilutions
Method: HepDES19 cells were seeded at 4×10^6 cells per T150 in the culture medium (Dulbecco's Modified Eagle Medium: Nutrient Mixture F-12 (DMEM:F12, Gibco Cat. 11320-82), 10% Fetal Bovine Serum (FBS, Clontech Cat. 631101), 0.1 mM Non-Essential Amino Acids Solution (NEAA, Gibco Cat. 11140-050), […] Penicillin-Streptomycin (PS, Invitrogen Cat. 15140-163), 500 μg/mL Geneticin (G418, Invitrogen Cat. 10131-027) in the absence of Tet for 8 days. These cells were seeded at the density of 1×10^6 cells per well in 6-well plate. At 24 hrs after seeding, serial dilutions of compounds made with DMSO (Sigma, Cat. D2650) were further diluted with the same culture medium as described above before they were added to the cells to reach desired final compound concentrations and 1% DMSO concentration. After 5 days' compound treatment, the cells growing in one well from 6-well plate were re-suspended with 500 μL re-suspension buffer (50 mM tris[hydroxymethyl]aminomethane pH 7.5), 10 mM ethylenediaminetetraacetic acid (EDTA), 50 μg/mL RNase A (Qiagen, Cat. 158922). 500 μL of 1.2% sodium dodecyl sulfate (SDS) was then added into the re-suspended cells to lyse the cells. After 15 minutes' incubation, 700 μL precipitation buffer (3M cesium chloride, 1M potassium acetate, 0.67M acetic acid) was added and the lysate was incubated at 4° C. for 2 h. The lysate was centrifuged at 15000 revolutions per minute (RPM) at 4° C. for 15 minutes. The supernatant was collected and loaded onto Qiagen miniprep columns (QIAprep spin Mini prep kit, Cat. No. 27016). After centrifugation for 1 minute at 15000 RPM, the column was washed once with 750 µL wash buffer PE from QIAprep spin Mini prep kit. 80 μL of double distilled water was loaded to the columns to elute Hirt DNA.
Hirt DNA of each sample was loaded into 1.2% lx tris-acetate electrophoresis (TAE) agarose gel and separated at 90 voltages for 3 hours. The gel was then treated in 50 mM NaAc—HAc, pH4.2 for 30 min at room temperature (RT), and then denatured by soaking in denaturation buffer (0.5 M sodium hydroxide, 1.5 M sodium chloride) at RT for 30-45 min. The gel was then treated with neutralization buffer (1M tris[hydroxymethyl]aminomethane pH7.4 and 1.5M NaCl) at RT for 30 to 45 min.
The gel was transferred onto a pre-wet Nylon membrane (GE life science, Hybond N+) by capillary transfer method overnight, followed by UV crosslinking. The membrane was transferred into a hybridization tube, then rinsed with double distilled water at 60° C. for 5 mins. 10 mL of hybridization buffer (Lab kits, China) was added, the resulting sample was rotated in hybridization oven at 60° C. for 1 hour. Digoxigenin (DIG)-labelled HBV probe (SEQ ID NO: 1) was denatured at 95° C. for 10 minutes, and then 7 μL of denatured probe was added to the hybridization tube, which was rotated in hybridization oven at 60° C. overnight.
On the second day, the membrane was washed according to the procedure of DIG wash and block buffer set kit (Roche, Cat. 11 585 762 001), and then incubated with 50 mL antibody solution (Antibody anti-Digoxigenin-AP Fab fragment (Roche Cat. 11093274910) diluted in fresh 1× blocking buffer at 1:10,000) for 1 hour. The membrane was washed with 50 mL washing buffer (1× Maleic buffer with 0.3% Tween-20) for 15 minutes twice, and equilibrated with 20 mL detection buffer (0.1M tris[hydroxymethyl]aminomethane pH9.5, 0.1M sodium chloride) for 5 minutes. CDP-Star substrate (Roche, Cat. 12041677001) was added to the membrane for 5 minutes, and then the membrane was scanned by Bio-Rad Visualize Image System (Biorad, ChemiDoc-MP, Serial No. 731BR00916).

SMILES	IC50 [1] [µM]	cccDNA level in HepDES19 cells (Southern Blot) [2]
O=C(O)C1CCN(c2ccc3c(=O)c4cccc(F)c4oc3c2)C1 (stereo not drawn) [Example 5, 1-(5-fluoro-9-oxo-xanthen-3-yl)pyrrolidine-3-carboxylic acid]	9.62	dose-dependently reduced cccDNA level
O=C(O)C1CCN(c2ccc3c(=O)c4c(Cl)ccc(Cl)c4oc3c2)C1 (stereo not drawn) [Example 26, 1-(5,8-dichloro-9-oxo-xanthen-3-yl)pyrrolidine-3-carboxylic Acid]		dose-dependently reduced cccDNA level
O=C(O)C1CCN(c2ccc3c(=O)c4cccc(Cl)c4oc3c2)C1 (stereo not drawn) [Example 2, 1-(5-chloro-9-oxo-xanthen-3-yl)pyrrolidine-3-carboxylic acid]	2.3	dose-dependently reduced cccDNA level
O=C(O)[C@@H]1CCN(c2ccc3c(=O)c4cccc(Cl)c4oc3c2)C1 [Example 3, (3R)-1-(5-chloro-9-oxo-xanthen-3-yl)pyrrolidine-3-carboxylic acid]	1.61	dose-dependently reduced cccDNA level
O=C(O)[C@H]1CCN(c2ccc3c(=O)c4cccc(Cl)c4oc3c2)C1 [Example 4, (3S)-1-(5-chloro-9-oxo-xanthen-3-yl)pyrrolidine-3-carboxylic acid]	1.93	dose-dependently reduced cccDNA level

Reference: patent publication US10611748B2, “Xanthone derivatives for the treatment of hepatitis B virus disease” (Hoffmann-La Roche Inc., priority 2017, dated 2020)
